Experimental data as given in US11491147B2, “Combination drug therapy reduces PARP-1 related DNA repair and increases the efficacy of genotoxic agents” (Indiana University Research and Technology Corporation, priority 2016, dated 2022).
pIC50: −log10 of the molar value.

What was measured:
[1] = system: MCF7 cells; assay: Colony formation survival assay, MCF7 cells; type: cell-based, human; settings: Homo sapiens; single agent, MCF7 cells, colony formation; read-out: IC50, cell survival
Experimental: FIG. 15. […] B. Combination index. Combination index (CI) was derived using the data shown in A and the formula: […]
For each potency ratio, combination index of three effective concentrations at IC30, IC50, and IC70 were calculated for synergistic effects using Prism 7.0.
Cells were then harvested and re-plated in 6-well plates at a density of 200 cells/well followed by IR treatment at different doses and colony formation assay or collection of cells for Western blot analysis. Concentration-response curves and IC50 values were calculated using Prism 7.0 (GraphPad, La Jolla, USA).

[2] = system: M/FASN cells; assay: MTT survival assay, M/FASN cells; type: cell-based, human
Experimental: (§1) FIG. 5. PARP-1 mediates FASN-associated DNA repair and genotoxic treatment resistance. A-B, Effect of FASN on PARP-1 expression as determined by Western blot (A) and real-time RT-PCR (B) in stable FASN-over-expressing and -knockdown cells. C, Effect of FASN on IR-induced histone-H3 PARylation. Cells were pre-treated without or with 0.5 μM olaparib followed by treatment with or without IR and harvested at different times following IR for lysate preparation, immunoprecipitation of histone-H3 in the presence of 100 μM PARG inhibitor, gallotannin, and Western blot analyses of PARylated and total histone H3. D, Effect of PARP-1 knockdown on FASN-induced NHEJ up-regulation. FASN-over-expressing (P/FASN) and the control (P/Vec) cells were transiently transected with PARP-1 or scrambled control siRNA followed by Western blot analysis of PARP-1 (left panel) and NHEJ activity assay (right panel) (n=3, *p<0.05; **p<0.01). E, Effect of PARP-1 inhibition on survival. M/FASN cells were treated with 1 mM 3-ABA, 0.5 μM olaparib, or their vehicle control for 48 hours followed by MTT assay. F, Effect of PARP-1 inhibition on doxorubicin resistance. M/FASN cells were pre-treated for 6 hours by 1 mM 3-ABA, 0.5 μM olaparib, or transfected with control or PARP-1 siRNA followed by tested doxorubicin resistance using MTT survival assay. (n=3-4, *p<0.05, **p<0.01).
To determine if FASN enhancement of PARP-1 likely mediates FASN function in cellular resistance to DNA damages, a survival assay of […] cells following doxorubicin treatment in the absence or presence of PARP-1 inhibitors, 3-ABA (3-aminobenzamide) or olaparib was carried out. Now referring to FIG. 5E, either 1 mM 3-ABA or 0.5 μM olaparib alone had no effect on M/FASN cell survival.
MTT survival assay was performed as previously described (see e.g., Yang Y, Chen Q, & Zhang J T (2002) Structural and functional consequences of mutating cysteine residues in the amino terminus of human multidrug resistance-associated protein 1. J. Biol. Chem. 277(46):44268-44277). Briefly, cells in 96-well plate were cultured for 24 hours and treated with various concentrations of doxorubicin, bleomycin, cisplatin or H2O2 continuously for 3 days followed by addition of thiazolyl blue tetrazolium bromide (MTT) to a final concentration of 0.5 mg/mL and incubation at 37° C. for 4 hours. Medium was then removed and formazan was solubilized in dimethyl sulfoxide and the OD570 was measured by a Synergy H1 hybrid reader (BioTek, Winooski, Vt.). IC50's were obtained from the fitted curves generated by GraphPad Prism 5.0 program (GraphPad Software, Inc.). Relative resistance factor (RRF) is calculated using the formula RRF=IC50 (test)/IC50 (control) with control normalized as 1. […]

[3] = system: PARylated histone-H3; assay: IR-induced histone-H3 PARylation, immunoprecipitation and Western blot; type: cell-based, human; settings: pre-treatment with 0.5 μM olaparib, 5 Gy IR, P/FASN and P/Vec cells
Experimental: as §1, with “*p<0.05, **p<0.01). […]” for “*p<0.05, **p<0.01).”

[4] = molecular target: T1, TE activity of FASN (Homo sapiens, UniProt P49327); assay: TE activity assay using recombinant TE; type: biochemical
T1 construct: TE activity assay was performed also as previously described using recombinant TE (Fako et al., 2015)
T1 sequence (P49327 2207-2511 limits assumed): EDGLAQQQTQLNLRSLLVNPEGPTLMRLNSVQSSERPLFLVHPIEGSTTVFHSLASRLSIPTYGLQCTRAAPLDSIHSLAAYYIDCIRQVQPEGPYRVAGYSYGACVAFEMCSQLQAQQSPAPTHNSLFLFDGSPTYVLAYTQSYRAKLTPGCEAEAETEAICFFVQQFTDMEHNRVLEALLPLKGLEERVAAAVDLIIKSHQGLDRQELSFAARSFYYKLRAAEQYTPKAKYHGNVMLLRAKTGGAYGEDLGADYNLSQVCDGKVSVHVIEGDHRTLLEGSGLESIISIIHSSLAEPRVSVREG

| SMILES | pIC50 [1] | effect on M/FASN cell survival ([2]; 1 mM 3-ABA or 0.5 μM olaparib alone, 48 hours) | doxorubicin resistance level of M/FASN cells ([2]; pre-treated for 6 hours by 1 mM 3-ABA or 0.5 μM olaparib) | IR-induced PARylation of histone-H3 [3] | inhibition of TE (Ki), R- versus S-enantiomer [4] |
| --- | --- | --- | --- | --- | --- |
| O=C(c1cc(Cc2n[nH]c(=O)c3ccccc23)ccc1F)N1CCN(C(=O)C2CC2)CC1 [olaparib] | 6.00 | no effect | significantly reduced | inhibited IR-induced PARylation | – |
| Cc1c(OCC(F)(F)F)ccnc1C[S@@+]([O-])c1nc2ccccc2[nH]1 [R-lansoprazole] | – | – | – | – | significantly more effective than the S-lansoprazole |
